Biological target: human HPK1 (MAP4K1) (Homo sapiens (Human), UniProt Q92918)
Assay: HPK1 IC50 Assay (TR-FRET biochemical kinase assay, STK S1 peptide substrate)
Details: recombinant human HPK1 kinase domain 0.15 nM, 10 μM ATP, 1 μM STK S1 peptide; geometric mean
Procedure: The enzymatic activity of human HPK1 (MAP4K1) was monitored in a biochemical assay in the presence or absence of compounds and using a synthetic peptide substrate. An increase in phosphorylation of the peptide by HPK1 was indicative of its kinase activity.
Recombinant HPK1 kinase domain produced via baculovirus infection of insect cells was obtained from Proteros (Proteros Biostructures #PR-0322) and was pre-activated in the presence of 2 mM ATP (Sigma-Aldrich, cat #GE27-2056-01) and 2 mM magnesium chloride for 16 hours at 4° C. The protein reaction mixture was then loaded to a desalting column (Thermo Fisher Scientific, Cat #89889) to remove excess ATP. HPK1 was eluted with buffer containing 20 mM Tris (2-Amino-2-(hydroxymethyl)propane-1,3-diol) pH 8.0, 150 mM NaCl, 2 mM dithiothreitol and 5% glycerol, and was frozen at −80° C. for later use.
Ten nanoliters of test compounds dissolved in DMSO at various concentrations were dispensed into a 384-well ProxiPlate (PerkinElmer #6008289). Five microliters of a solution of recombinant HPK1 diluted in HPK1 kinase assay buffer (50 mM BES [N,N-Bis(2-hydroxyethyl)-2-aminoethanesulfonic acid], pH 7.0; 10 mM magnesium chloride; 0.01% Triton X-100; 1 mM dithiothreitol; 0.01% bovine serum albumin; 0.1 mM sodium orthovanadate) was added to the compound-containing plate and was incubated for 15 minutes at 25° C. Five microliters of a mixture of ATP (Sigma-Aldrich #A6559) and peptide substrate STK S1 (Cisbio #61ST1BLC) diluted in HPK1 kinase assay buffer was then added to start the reaction. Final concentrations were 0.15 nM for HPK1, 10 μM for ATP, and 1 μM for the STK S1 peptide substrate. The reaction mixture was incubated at 25° C. for 3 hours and was stopped with the addition of 10 μl of an EDTA (Ethylenediaminetetraacetic acid)-containing detection buffer (Cisbio #62SDBRDF) supplemented with Europium cryptate-labeled anti-phospho-serine/threonine antibodies (Cisbio #62ST1PEJ) and XL665-labeled streptavidin (Cisbio #610SAXLG). The mixture was incubated for 16 hours at room temperature and peptide phosphorylation was measured by time-resolved fluorescence energy transfer (665 nm/620 nm) on an Envision plate reader (PerkinElmer).
Data in Table 1 were normalized based on positive (staurosporine) and negative (DMSO) controls. Least squares curve fittings were performed using a four-parameter variable slope nonlinear regression model. IC50 is defined as the concentration of compound required to inhibit 50% of maximum phosphorylation. IC50 values from multiple experiments were averaged by geometric mean and the standard deviation was calculated.

human HPK1 (MAP4K1), sequence (Q92918 17-274): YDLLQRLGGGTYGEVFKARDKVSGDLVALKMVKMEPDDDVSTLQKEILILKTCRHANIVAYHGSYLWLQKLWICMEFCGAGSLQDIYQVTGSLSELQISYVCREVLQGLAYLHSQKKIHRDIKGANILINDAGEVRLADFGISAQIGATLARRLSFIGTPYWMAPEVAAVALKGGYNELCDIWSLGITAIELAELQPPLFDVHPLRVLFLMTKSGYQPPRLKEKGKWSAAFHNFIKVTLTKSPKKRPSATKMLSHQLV

IC50 [nM]	Compound
0.3	CC(C)n1cnc2cc(-c3ccc4c(c3)N([C@H]3C[C@@H](N5CCCCC5)C3)C(=O)C43CCN(C(=O)C(C)(C)C)CC3)nc(Nc3ccncc3F)c21 [Example 170]
0.3	CO[C@H](C)C(=O)N1CCC2(CC1)C(=O)N([C@H]1C[C@@H](N3CCCCC3)C1)c1cc(-c3cc4ncn(C(C)C)c4c(Nc4ccncc4F)n3)ccc12 [Example 153]
0.7	CC(=O)N1CCC2(CC1)C(=O)N([C@H]1C[C@@H](N3CCCC[C@@H]3C)C1)c1cc(-c3cc4ncn(C(C)C)c4c(Nc4ccncc4F)n3)ccc12 [Example 184]
0.4	CC(=O)N1CCC2(CC1)C(=O)N([C@H]1C[C@@H](N3CCC4CC4C3)C1)c1cc(-c3cc4ncn(C(C)C)c4c(Nc4ccncc4F)n3)ccc12 (some centres unmarked) [Example 183]
0.4	CC(=O)N1CCC2(CC1)C(=O)N([C@H]1C[C@@H](N3CCC(C)(C)C3)C1)c1cc(-c3cc4ncn(C(C)C)c4c(Nc4cc(C)ncc4F)n3)ccc12 [Example 173]
0.1	CC(=O)N1CCC2(CC1)C(=O)N([C@H]1C[C@@H](N3CCCCCC3)C1)c1cc(-c3cc4ncn(C(C)C)c4c(Nc4ccncc4F)n3)ccc12 [Example 185]
0.04	CC(C)n1cnc2cc(-c3ccc4c(c3)N([C@H]3C[C@@H](N5CC6CCC(C6)C5)C3)C(=O)C43CCN(C(=O)C4CCO4)CC3)nc(Nc3ccncc3F)c21 (some centres unmarked) [Example 125]
0.9	CC(C)n1cnc2cc(-c3ccc4c(c3)N([C@H]3C[C@@H](N5CCC[C@@H](C)C5)C3)C(=O)C4(C)C)nc(Nc3ccncc3F)c21 [Example 191]
0.3	COC1(C(=O)N2CCC3(CC2)C(=O)N([C@H]2C[C@@H](N4CCCCC4)C2)c2cc(-c4cc5ncn(C(C)C)c5c(Nc5ccncc5F)n4)ccc23)CCC1 [Example 107]
0.3	COCC(C)(C)C(=O)N1CCC2(CC1)C(=O)N([C@H]1C[C@@H](N3CCCCC3)C1)c1cc(-c3cc4ncn(C(C)C)c4c(Nc4ccncc4F)n3)ccc12 [Example 140]
0.4	CC(C)n1cnc2cc(-c3ccc4c(c3)N([C@H]3C[C@@H](N5CCC(C)(C)C5)C3)C(=O)C43CCN(C(=O)c4cnnn4C)CC3)nc(Nc3ccncc3F)c21 [Example 161]
0.3	CC(=O)N1CCC2(CC1)C(=O)N([C@H]1C[C@@H](N3CCCC4(CCC4)C3)C1)c1cc(-c3cc4ncn(C(C)C)c4c(Nc4ccncc4F)n3)ccc12 [Example 182]
0.3	COC1(C(=O)N2CCC3(CC2)C(=O)N([C@H]2C[C@@H](N4CCCCC4)C2)c2cc(-c4cc5ncn(C(C)C)c5c(Nc5ccncc5F)n4)ccc23)CC1 [Example 146]
0.4	CC[C@@H](O)C(=O)N1CCC2(CC1)C(=O)N([C@H]1C[C@@H](N3CCCCC3)C1)c1cc(-c3cc4ncn(C(C)C)c4c(Nc4ccncc4F)n3)ccc12 [Example 114]
0.4	CC(=O)N1CCC2(CC1)C(=O)N([C@H]1C[C@@H](N3CCCCC3)C1)c1cc(-c3cc4ncn(C(C)C)c4c(Nc4cc5ccncc5cc4F)n3)ccc12 [Example 105, 1′-acetyl-6-(4-((7-fluoroisoquinolin-6-yl)amino)-3-isopropyl-3H-imidazo[4,5-c]pyridin-6-yl)-1-((1s,3s)-3-(piperidin-1-yl)cyclobutyl)spiro[indoline-3,4′-piperidin]-2-one]
1.6	CC(=O)N1CCC2(CC1)C(=O)N([C@H]1C[C@@H](N3CCCCC3)C1)c1cc(-c3cc4ncn(C(C)C)c4c(Nc4cc(N(C)C)ncc4F)n3)ccc12 [Example 99]
0.2	CC[C@@H](O)C(=O)N1CCC2(CC1)C(=O)N([C@H]1C[C@@H](N3CCC(C)(C)C3)C1)c1cc(-c3cc4ncn(C(C)C)c4c(Nc4ccncc4F)n3)ccc12 [Example 117]
0.1	CC(=O)N1CCC2(CC1)C(=O)N([C@H]1C[C@@H](N3CC4CCC(C4)C3)C1)c1cc(-c3cc4ncn(C(C)C)c4c(Nc4ccncc4F)n3)ccc12 [Example 181]
1.4	CNC(=O)c1ccc(F)c(Nc2nc(-c3ccc4c(c3)N([C@H]3C[C@@H](N5CCCCC5)C3)C(=O)C4(C)C)cc3ncn(C(C)C)c23)n1 [Example 104]
0.06	CC(C)n1cnc2cc(-c3ccc4c(c3)N([C@H]3C[C@@H](N5CCC(C)(C)C5)C3)C(=O)C43CCN(C(=O)C4(C)COC4)CC3)nc(Nc3ccc(F)nc3F)c21 [Example 165]

Compound	IC50 [nM]
CC(C)n1cnc2cc(-c3ccc4c(c3)N([C@H]3C[C@@H](N5CC(C)(C)C5)C3)C(=O)C43CCN(C4COC4)CC3)nc(Nc3ccncc3F)c21 [Example 176]	0.8

Same assay, conditions: recombinant human HPK1 kinase domain 0.15 nM, 10 μM ATP, 1 μM STK S1 peptide; geometric mean of multiple experiments

IC50 [nM]	Compound
0.3	CC(=O)N1CCC2(CC1)C(=O)N([C@H]1C[C@@H](N3C[C@@H](C)[C@@H](C)C3)C1)c1cc(-c3cc4ncn(C(C)C)c4c(Nc4ccncc4F)n3)ccc12 [Example 33]
13.2	CC(C)n1cnc2cc(-c3cnc4c(c3)N([C@H]3C[C@@H](N5CCCCC5)C3)C(=O)C4(C)C)nc(Nc3ccncc3F)c21 [Example 51]
1.2	CC(C)n1cnc2cc(-c3ccc4c(c3)N([C@H]3C[C@@H](N5CCCCC5)C3)C(=O)[C@@]4(C)O)nc(Nc3ccncc3F)c21 [Example 55A, 6-(4-((3-fluoropyridin-4-yl)amino)-3-isopropyl-3H-imidazo[4,5-c]pyridin-6-yl)-3-hydroxy-3-methyl-1-((1s,3s)-3-(piperidin-1-yl)cyclobutyl)indolin-2-one]
0.1	CC(C)n1cnc2cc(-c3ccc4c(c3)N([C@H]3C[C@@H](N5CCC(C)(C)C5)C3)C(=O)C43CCN(C(=O)C4(C)CCO4)CC3)nc(Nc3ccncc3F)c21 (some centres unmarked) [Example 12]
0.2	CC(C)n1cnc2cc(-c3ccc4c(c3)N([C@H]3C[C@@H](N5CCCCC5)C3)C(=O)C43CCN(C(=O)C4(C)COC4)CC3)nc(Nc3ccc(F)nc3F)c21 [Example 96]
0.7	CC(C)n1cnc2cc(-c3ccc4c(c3)N([C@H]3C[C@@H](N5C[C@H]6CC[C@@H]5C6)C3)C(=O)C4(C)C)nc(Nc3ccncc3F)c21 [Example 66]
0.1	CC(C)n1cnc2cc(-c3ccc4c(c3)N([C@H]3C[C@@H](N5CCC(C)(C)C5)C3)C(=O)C43CCN(C(=O)[C@H]4OCC[C@H]4C)CC3)nc(Nc3ccncc3F)c21 [Example 19B, 1-((1s,3R)-3-(3,3-dimethylpyrrolidin-1-yl)cyclobutyl)-6-(4-((3-fluoropyridin-4-yl)amino)-3-isopropyl-3H-imidazo[4,5-c]pyridin-6-yl)-1′-((2S,3R)-3-methyltetrahydrofuran-2-carbonyl)spiro[indoline-3,4′-piperidin]-2-one]
0.1	CC(C)n1cnc2cc(-c3ccc4c(c3)N([C@H]3C[C@@H](N5CCCC(C)(C)C5)C3)C(=O)C4(C)C)nc(Nc3ccc(=O)[nH]c3)c21 [Example 82]
1.1	CC(=O)N1CCC2(CC1)C(=O)N([C@H]1C[C@@H](N3CCCCC3)C1)c1cc(-c3cc4ncn(C(C)C)c4c(Nc4cc(C)ncc4F)n3)ccc12 [Example 31]
0.3	CC(C)n1cnc2cc(-c3ccc4c(c3)N([C@H]3C[C@@H](N5CCC(C)(C)C5)C3)C(=O)C43CCN(C(=O)C4(C)CCOC4)CC3)nc(Nc3ccncc3F)c21 (some centres unmarked) [Example 18]
1.7	CC(C)CN[C@H]1C[C@@H](N2C(=O)C(C)(C)c3ccc(-c4cc5ncn(C(C)C)c5c(Nc5ccncc5F)n4)cc32)C1 [Example 84]
0.8	CC(C)n1cnc2cc(-c3ccc4c(c3)N([C@H]3C[C@@H](N5CC6CC6C5)C3)C(=O)C4(C)C)nc(Nc3ccncc3F)c21 (some centres unmarked) [Example 61]
0.3	CC(C)n1cnc2cc(-c3ccc4c(c3)N([C@H]3C[C@@H](N5CCC(C)(C)C5)C3)C(=O)C43CCN(C(=O)[C@@H]4CCOC4)CC3)nc(Nc3ccncc3F)c21 [Example 17]
2.5	CC(C)n1cnc2cc(-c3cnc4c(c3)N([C@H]3C[C@@H](N5CCCCC5)C3)C(=O)C4(C)C)nc(Nc3ccnc(F)c3F)c21 [Example 95]

Compound	IC50 [nM]
CC(C)n1cnc2cc(-c3ccc4c(c3)N([C@H]3C[C@@H](N5CCCC(C)(C)C5)C3)C(=O)C43CCN(C4COC4)CC3)nc(Nc3ccncc3F)c21 [Example 45]	0.2
CC(C)n1cnc2cc(-c3ccc4c(c3)N([C@H]3C[C@@H](N5CC[C@@H](F)C5)C3)C(=O)C43CCN(C4COC4)CC3)nc(Nc3ccncc3F)c21 [Example 42]	0.6
CC(C)n1cnc2cc(-c3ccc4c(c3)N([C@H]3C[C@@H](N5CCC(C)(C)C5)C3)C(=O)C43CCN(C4COC4)CC3)nc(Nc3ccncc3F)c21 [Example 75]	0.4
